How the values were obtained:
[1] = test system: succinate dehydrogenase (SDH); test: Succinate dehydrogenase activity in A549 cells; format: cell-based, human; conditions: 50 µM
Description: The activity of succinate dehydrogenase (SDH) in cells was determined using an SDH activity assay kit (Solarbio, Beijing, China) according to the manufacturer’s instructions. The optical density at 600 nm (OD600) was measured using a multifunctional microplate reader in 96-well plates. One unit of SDH activity was defined as the amount of enzyme catalyzing the consumption of 1 nmol of 2,6-dichlorophenol indophenol per minute at 37 °C [43]. The activity of aconitase (ACO) was measured as previously described, with some modifications. The cells were washed three times with pre-cooled PBS and lysed with lysis buffer containing 50 mM of Tris-HCl (pH 8.0), 0.2% Triton X-100, 0.6 mM of MnCl2, 5 mM of citrate, and 1 mM of PMSF. The aconitase activity was measured by monitoring the formation of cis-aconitate from isocitrate at 240 nm in 50 mM of Tris-HCl (pH 8.0) containing 20 mM of DL-trisodium isocitrate at 37 °C. An extinction coefficient of 3600 M^−1 cm^−1 at 240 nm was used to calculate the cis-aconitate concentration. One unit of ACO activity was defined as the amount of enzyme catalyzing the generation of 1 nmol of cis-aconitate per minute at 37 °C.

NFS1 K157A = target: T1, NFS1 K157A (Homo sapiens, UniProt Q9Y697, K157A); test: H2S-producing assay, NFS1 K157A mutant; format: biochemical
T1 construct: His tag (N); made in house; host or cells: E. coli BL21(DE3)
Description: To further validate the accuracy of the simulated results, the residues Cys158, Glu387, Lys157, and His156 were mutated to alanine using site-directed mutagenesis.
For the expression and purification of NFS1Δ1-55/ISD11 in E. coli, the plasmid pNFS1-ISD11 was transformed into BL21(DE3) cells. The cells were grown at 37 °C in 1 L cultures of LB medium containing chloramphenicol (50 μg/ml) until the optical density at 600 nm (OD600) reached 0.6–0.8. Protein expression was induced by adding 0.1 mM isopropyl β-D-1-thiogalactopyranoside (IPTG), followed by an additional 12 h of incubation at 25 °C. The cells were harvested by centrifugation at 8000 rpm for 10 min at 4 °C, then resuspended in lysis buffer containing 50 mM phosphate-buffered saline (PBS, pH 7.4), 500 mM NaCl, 100 mg/L lysozyme, 30 mM imidazole, and 1 mM phenylmethanesulfonyl fluoride (PMSF). The resuspended cells were incubated on ice for 1 h, followed by sonication using an Ultrasonic Cell Disruption System (Scientz, Ningbo, China). The supernatant was obtained by centrifugation at 12,000 rpm for 30 min at 4 °C and was loaded onto a HisTrap FF column (GE Healthcare, Chicago, MA, USA) pre-equilibrated with lysis buffer. […] The protein concentration was measured using a BCA protein assay reagent kit (TransGen Biotech, Beijing, China).

A549 cells = test: CCK-8 cell viability assay, A549; format: cell-based, human
Description: Human bronchial epithelial cells (BEAS-2B) and human lung adenocarcinoma A549 cells were purchased from the Institute of Biochemistry and Cell Biology, Chinese Academy of Sciences (Shanghai, China). BEAS-2B and A549 cells were cultured in DMEM supplemented with 10% (v/v) fetal bovine serum and 1% (v/v) penicillin–streptomycin solution at 37 °C in a humidified atmosphere containing 5% CO2. The half-maximal inhibitory concentration (IC50) values of the selected compounds against BEAS-2B and A549 cells were determined using the CCK-8 assay. Briefly, the cells were seeded into 96-well culture plates at a density of 5 × 10^3 cells per well. After 12 h of culture, fresh medium containing varying concentrations of the selected compounds dissolved in DMSO was added for an additional 72-hour incubation. Subsequently, 10 μL of CCK-8 solution was added to each well, followed by a further 1.5-h incubation at 37 °C. The optical density at 450 nm (OD450) for each well was measured using a microplate reader. Medium containing DMSO alone was used as the control group. Cell viability was calculated as the percentage of the OD450 of the experimental group compared to that of the control group, which was set at 100%.

[2] = target: T2, cystathionine-γ-lyase (CSE) (Homo sapiens, UniProt P32929); test: Selectivity assay, H2S-producing activity of CSE; format: biochemical; conditions: at 100 µM
T2 construct: made in house; host or cells: E. coli
Description: To evaluate the selectivity of Compounds 53 and 56, their effects on the activities of two other PLP-dependent enzymes, human cystathionine-β-synthase (CBS) and cystathionine-γ-lyase (CSE), were determined using a H2S-producing assay. Human CBS and CSE were expressed and purified in E. coli with a purity exceeding 90%, as confirmed by SDS-PAGE (Figures S4A and S5A). Subsequently, the H2S-producing activities of CBS and CSE were assessed in the presence of different concentrations of Compounds 53 and 56. A widely used CBS inhibitor, AOAA, and a specific CSE inhibitor, PAG, were used as positive controls (Figures S4B and S5B).
The H2S-producing activity of CBS was measured as previously described. The reaction mixture (200 μL) contained 50 mM of Hepes buffer (pH 7.4), 2 mM of homocysteine, 10 μM of PLP, 0.4 mM of lead nitrate, and 5 μg of CBS protein. It was preincubated at 37 °C for 3 min, and the reaction was initiated by the addition of 2 mM of cysteine. The reaction was monitored in a multifunctional microplate reader at 37 °C for 10 min. An extinction coefficient of 5500 M^−1 cm^−1 at 390 nm was used to calculate the lead sulfide concentration. The method used to determine CSE activity in the H2S-producing assay was identical to the CBS assay, except that 1 mM of cysteine was used as the sole substrate. […]

T2 sequence (P32929 whole entry): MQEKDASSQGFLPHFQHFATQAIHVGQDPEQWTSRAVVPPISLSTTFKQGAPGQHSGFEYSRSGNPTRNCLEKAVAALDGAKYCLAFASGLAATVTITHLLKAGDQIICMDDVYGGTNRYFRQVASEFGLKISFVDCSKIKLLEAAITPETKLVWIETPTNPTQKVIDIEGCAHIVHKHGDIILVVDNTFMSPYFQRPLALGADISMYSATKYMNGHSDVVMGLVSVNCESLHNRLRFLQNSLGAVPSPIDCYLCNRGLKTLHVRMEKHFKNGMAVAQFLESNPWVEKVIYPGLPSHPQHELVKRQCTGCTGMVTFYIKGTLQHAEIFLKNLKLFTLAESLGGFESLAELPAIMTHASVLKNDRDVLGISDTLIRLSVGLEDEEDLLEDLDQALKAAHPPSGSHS
T1 sequence (Q9Y697 56-457 K157A): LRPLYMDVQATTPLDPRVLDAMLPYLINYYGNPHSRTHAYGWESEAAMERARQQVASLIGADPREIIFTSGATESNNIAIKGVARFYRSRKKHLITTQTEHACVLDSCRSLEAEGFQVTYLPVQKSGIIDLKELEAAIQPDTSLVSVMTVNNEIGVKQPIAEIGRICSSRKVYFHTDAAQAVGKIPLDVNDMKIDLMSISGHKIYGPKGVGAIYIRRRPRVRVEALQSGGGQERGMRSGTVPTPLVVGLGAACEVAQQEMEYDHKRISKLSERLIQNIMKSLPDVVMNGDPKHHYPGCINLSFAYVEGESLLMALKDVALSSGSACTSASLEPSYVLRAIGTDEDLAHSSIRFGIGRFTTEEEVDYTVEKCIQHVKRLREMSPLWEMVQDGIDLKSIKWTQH

## COc1cc(/C=N/NC(=O)COc2ccc(Cl)cc2Cl)ccc1O [Compound 53]
[1]
  SDH activity compared to the control group: 81.8%
NFS1 K157A
  IC50: 53.2 ± 6.44 µM
A549 cells; A549 cells, Compound 53 50 µM with 2.5 µM Erastin, versus without
  anti-proliferative activity in the presence of Erastin: increased remarkably
A549 cells; Homo sapiens, A549, CCK-8, 72 h
  IC50: 16.3 ± 1.92 µM
[2]
  inhibitory effect on CSE: no significant inhibitory effects

Reference: publication PMC11942905, “Identification of a Selective Inhibitor of Human NFS1, a Cysteine Desulfurase Involved in Fe-S Cluster Assembly, via Structure-Based Virtual Screening” (International Journal of Molecular Sciences, 2025)
